{"source": "patent US9340548B2", "about": "“Substituted pyrazolo[3,4-a]carbazoles as hepatitis C inhibitors” (priority 2011, dated 2016)", "data": [{"system": "HCVpp (HCV E1/E2, isolate Con1) entry into Hep3B2.1-7 cells", "test": "microbe, parasite or virus in culture", "type": "cell-based", "settings": "Hepatitis C virus, 72 h, read-out: EC50 (nM) Example 46", "units": {"EC50": "nM"}, "values": [{"smiles": "CC1(C)Cc2c[nH]nc2-c2[nH]c3ccc(C(=O)N[C@H]4CCOC4)cc3c21", "note": "[Compound 1006]", "EC50": 112}, {"smiles": "CC1(C)Cc2c[nH]nc2-c2[nH]c3ccc(C(N)=O)cc3c21", "note": "[Compound 1011]", "EC50": 72}, {"smiles": "CC1(C)Cc2c[nH]nc2-c2[nH]c3ccc(C(=O)NC4CCN(C(=O)c5ccccn5)C4)cc3c21", "note": "(centres unmarked) [Compound 1015]", "EC50": 12}, {"smiles": "CC(C)NC(=O)N1CCC(NC(=O)c2ccc3[nH]c4c(c3c2)C(C)(C)Cc2c[nH]nc2-4)C1", "note": "(centres unmarked) [Compound 1118]", "EC50": 19}, {"smiles": "CC1(C)Cc2c[nH]nc2-c2[nH]c3ccc(C(=O)Nc4cccnc4)cc3c21", "note": "[Compound 1126]", "EC50": 65}, {"smiles": "CC1(C)Cn2cnnc2-c2[nH]c3ccc(C(=O)NCc4ccccn4)cc3c21", "note": "[Compound 2001]", "EC50": 1400}, {"smiles": "Cn1cc2c(n1)-c1[nH]c3ccc(C(=O)NCc4ccccn4)cc3c1C(C)(C)C2", "note": "[Compound 2004]", "EC50": 109}, {"smiles": "CC1(C)Cn2ccnc2-c2[nH]c3ccc(C(=O)NC4CCOCC4)cc3c21", "note": "[Compound 2012]", "EC50": 230}, {"smiles": "CC1(C)Cc2sc(N)nc2-c2[nH]c3ccc(C(=O)NC4CCS(=O)(=O)C4)cc3c21", "note": "(centres unmarked) [Compound 2014]", "EC50": 280}, {"smiles": "Cc1nc2c(s1)CC(C)(C)c1c-2[nH]c2ccc(C(=O)NC3CCS(=O)(=O)C3)cc12", "note": "(centres unmarked) [Compound 2018]", "EC50": 320}, {"smiles": "COC(=O)c1ccc2[nH]c3c(c2c1)C(C)(C)Cc1c[nH]nc1-3", "note": "[Compound 2020]", "EC50": 97}, {"smiles": "CC1(C)Cc2cnc(N)nc2-c2[nH]c3ccc(C(=O)NCc4ccccn4)cc3c21", "note": "[Compound 2022]", "EC50": 1350}, {"smiles": "Cc1ncc2c(n1)-c1[nH]c3ccc(C(=O)NC4CCS(=O)(=O)C4)cc3c1C(C)(C)C2", "note": "(centres unmarked) [Compound 2028]", "EC50": 885}, {"smiles": "CC(C)S(=O)(=O)CCNC(=O)c1ccc2[nH]c3c(c2c1)C1(CCC1)Cc1c[nH]nc1-3", "note": "[Compound 3011]", "EC50": 2.8}, {"smiles": "O=C(NC1CCN(C(=O)c2ccccn2)C1)c1ccc2[nH]c3c(c2c1)C1(CCC1)Cc1c[nH]nc1-3", "note": "(centres unmarked) [Compound 3018]", "EC50": 6.7}, {"smiles": "CC1CC2(Cc3c[nH]nc3-c3[nH]c4ccc(C(=O)NCc5ccccn5)cc4c32)C1", "note": "(centres unmarked) [Compound 4004]", "EC50": 54}, {"smiles": "CC1(C)c2c[nH]nc2-c2[nH]c3ccc(C(=O)NC4CCN(C(=O)c5ncn[nH]5)C4)cc3c21", "note": "(centres unmarked) [Compound 5002]", "EC50": 59}]}]}
